Columns and labels:
Zymoseptoria tritici = assay: Leaf blotch of wheat (SEPTTR) disease control on wheat seedlings; assay type: in vivo; set-up: key to SEPTTR 1DP, HV activity at 100 ppm (% control rating) / SEPTTR 3DC, HV activity at 100 ppm (% control rating) / SEPTTR disease control, 1DP / SEPTTR disease control, 3DC / SEPTTR 1DP disease control rating, HV activity / SEPTTR 3DC disease control rating, HV activity / SEPTTR 3DC, LV activity at 125.1 g/H (% Control rating) / SEPTTR 1DP, LV activity at 125.1 g/H (% Control rating) / SEPTTR 1DP disease control rating, LV activity at 125.1 g/H / SEPTTR 3DC disease control rating, LV activity at 125.1 g/H / SEPTTR 3DC disease control rating, HV activity at 100 ppm / SEPTTR 1DP disease control rating, HV activity at 100 ppm / HV activity at 100 ppm SEPTTR 3DC (disease control rating) / HV activity at 100 ppm SEPTTR 1DP (disease control rating) / LV activity at 125.1 g/H SEPTTR 1DP (disease control rating) / LV activity at 125.1 g/H SEPTTR 3DC (disease control rating): A: > 80; B: ≤ 80; C: Not Tested; D: No Activity Observed in the Reported Assay; conditions: for SEPTTR 1DP disease control rating, LV activity at 125.1 g/H / SEPTTR 3DC disease control rating, LV activity at 125.1 g/H / SEPTTR 1DP, LV activity at 125.1 g/H (% Control rating) / SEPTTR 3DC, LV activity at 125.1 g/H (% Control rating): low volume application; for SEPTTR 1DP disease control rating, LV activity at 125.1 g/H / SEPTTR 1DP disease control rating, HV activity at 100 ppm: 1 day protectant; for SEPTTR 3DC disease control rating, LV activity at 125.1 g/H / SEPTTR 3DC disease control rating, HV activity at 100 ppm: 3 day curative; for SEPTTR 1DP disease control rating, HV activity at 100 ppm / SEPTTR 3DC disease control rating, HV activity at 100 ppm: high volume application; for SEPTTR 1DP, LV activity at 125.1 g/H (% Control rating) / SEPTTR 1DP disease control rating, HV activity: 1 Day Protectant; for SEPTTR 3DC, LV activity at 125.1 g/H (% Control rating) / SEPTTR 3DC disease control rating, HV activity: 3 Day Curative; for SEPTTR 1DP disease control rating, HV activity / SEPTTR 3DC disease control rating, HV activity: HV application at 100 ppm, wheat leaf blotch
Puccinia triticina = assay: Wheat brown rust (PUCCRT) disease control on wheat seedlings; assay type: in vivo; set-up: key to PUCCRT 3DC, HV activity at 100 ppm (% control rating) / PUCCRT disease control, 3DC / PUCCRT 1DP disease control rating, HV activity / PUCCRT 3DC disease control rating, HV activity / PUCCRT 3DC, LV activity at 125.1 g/H (% Control rating) / PUCCRT 1DP, LV activity at 125.1 g/H (% Control rating) / PUCCRT 3DC disease control rating, LV activity at 125.1 g/H / PUCCRT 1DP disease control rating, LV activity at 125.1 g/H / PUCCRT 3DC disease control rating, HV activity at 100 ppm / PUCCRT 1DP disease control rating, HV activity at 100 ppm / HV activity at 100 ppm PUCCRT 3DC (disease control rating) / LV activity at 125.1 g/H PUCCRT 1DP (disease control rating) / LV activity at 125.1 g/H PUCCRT 3DC (disease control rating): A: > 80; B: ≤ 80; C: Not Tested; D: No Activity Observed in the Reported Assay; conditions: for PUCCRT 1DP disease control rating, LV activity at 125.1 g/H / PUCCRT 3DC disease control rating, LV activity at 125.1 g/H / PUCCRT 1DP, LV activity at 125.1 g/H (% Control rating) / PUCCRT 3DC, LV activity at 125.1 g/H (% Control rating): low volume application; for PUCCRT 1DP disease control rating, LV activity at 125.1 g/H / PUCCRT 1DP disease control rating, HV activity at 100 ppm: 1 day protectant; for PUCCRT 3DC disease control rating, LV activity at 125.1 g/H / PUCCRT 3DC disease control rating, HV activity at 100 ppm: 3 day curative; for PUCCRT 1DP disease control rating, HV activity at 100 ppm / PUCCRT 3DC disease control rating, HV activity at 100 ppm: high volume application; for PUCCRT 1DP, LV activity at 125.1 g/H (% Control rating) / PUCCRT 1DP disease control rating, HV activity: 1 Day Protectant; for PUCCRT 3DC, LV activity at 125.1 g/H (% Control rating) / PUCCRT 3DC disease control rating, HV activity: 3 Day Curative; for PUCCRT 1DP disease control rating, HV activity / PUCCRT 3DC disease control rating, HV activity: HV application at 100 ppm, wheat brown rust

In the case of COc1ccnc(C(=O)N[C@@H](C)C(=O)O[C@@H](C)[C@H](OCC2CC2)c2cccc(-c3ccccc3)c2)c1OC(C)=O [Cmpd 875], the “SEPTTR 1DP disease control rating, LV activity at 125.1 g/H” value (Zymoseptoria tritici) is reported as “A (> 80)”, the “SEPTTR 3DC disease control rating, LV activity at 125.1 g/H” value (Zymoseptoria tritici) is reported as “A (> 80)” and the “PUCCRT 1DP disease control rating, LV activity at 125.1 g/H” value (Puccinia triticina) is reported as “A (> 80)”. For the same molecule, the “PUCCRT 3DC disease control rating, LV activity at 125.1 g/H” value (Puccinia triticina) was “A (> 80)”.

For CCC(CC)C(Oc1cc(F)ccc1F)C(C)OC(=O)C(CC(C)C)NC(=O)c1nccc(OC)c1OCOC(C)=O (stereo not drawn) [Cmpd 682], the “SEPTTR 1DP disease control rating, LV activity at 125.1 g/H” value (Zymoseptoria tritici) was “B (≤ 80)”, the “SEPTTR 3DC disease control rating, LV activity at 125.1 g/H” value (Zymoseptoria tritici) was “B (≤ 80)” and the “PUCCRT 1DP disease control rating, LV activity at 125.1 g/H” value (Puccinia triticina) was “B (≤ 80)”. For the same molecule, the “PUCCRT 3DC disease control rating, LV activity at 125.1 g/H” value (Puccinia triticina) was “B (≤ 80)”.

In the case of COc1cc(O[C@@H]([C@H](C)OC(=O)[C@H](C)NC(=O)c2nccc(OC)c2O)C(C)(C)C)ccc1Cl [Cmpd 1001], the “SEPTTR 1DP disease control rating, HV activity at 100 ppm” value (Zymoseptoria tritici) is reported as “B (≤ 80)”, the “SEPTTR 3DC disease control rating, HV activity at 100 ppm” value (Zymoseptoria tritici) is reported as “D” and the “PUCCRT 1DP disease control rating, HV activity at 100 ppm” value (Puccinia triticina) is reported as “A (> 80)”. For the same molecule, the “PUCCRT 3DC disease control rating, HV activity at 100 ppm” value (Puccinia triticina) was “A (> 80)”.

With CCC(CC)[C@@H](Oc1cc(F)ccc1F)[C@H](C)OC(=O)[C@H](C)NC(=O)c1nccc(OC)c1OC(C)=O [Cmpd 602] the “SEPTTR 1DP, LV activity at 125.1 g/H (% Control rating)” value (“SEPTTR 1DP … (% Control rating)” for short) (Zymoseptoria tritici) was “A (> 80)”, the “SEPTTR 3DC, LV activity at 125.1 g/H (% Control rating)” value (“SEPTTR 3DC … (% Control rating)” below) (Zymoseptoria tritici) was “A (> 80)” and the “PUCCRT 1DP, LV activity at 125.1 g/H (% Control rating)” value (shortened to “PUCCRT 1DP … (% Control rating)”) (Puccinia triticina) was “A (> 80)”. The “PUCCRT 3DC, LV activity at 125.1 g/H (% Control rating)” value (“PUCCRT 3DC … (% Control rating)” for short) (Puccinia triticina) was “A (> 80)”.

In the case of CCC(CC)[C@@H](Oc1ccccc1Cl)[C@H](C)OC(=O)[C@@H](NC(=O)c1nccc(OC)c1O)C(C)C [Cmpd 411], the “SEPTTR 1DP disease control rating, HV activity” value (Zymoseptoria tritici) is reported as “B (≤ 80)”, the “SEPTTR 3DC disease control rating, HV activity” value (Zymoseptoria tritici) is reported as “B (≤ 80)” and the “PUCCRT 1DP disease control rating, HV activity” value (Puccinia triticina) is reported as “A (> 80)”. For the same molecule, the “PUCCRT 3DC disease control rating, HV activity” value (Puccinia triticina) was “D”.

With COc1ccnc(C(=O)NC(C)C(=O)OC(C)COC(=O)C(C)C)c1OCOC(C)=O (stereo not drawn) [Cmpd 530] the “SEPTTR 1DP … (% Control rating)” value (Zymoseptoria tritici) was “B (≤ 80)”, the “SEPTTR 3DC … (% Control rating)” value (Zymoseptoria tritici) was “B (≤ 80)” and the “PUCCRT 1DP … (% Control rating)” value (Puccinia triticina) was “D”. The “PUCCRT 3DC … (% Control rating)” value (Puccinia triticina) was “D”.

In the case of COc1ccnc(C(=O)NC(C)C(=O)OC(C)(C)C(Oc2ccccc2)C(C)C)c1O (stereo not drawn) [Cmpd 831], the “SEPTTR 1DP disease control rating, HV activity at 100 ppm” value (Zymoseptoria tritici) is reported as “D”, the “SEPTTR 3DC disease control rating, HV activity at 100 ppm” value (Zymoseptoria tritici) is reported as “D” and the “PUCCRT 1DP disease control rating, HV activity at 100 ppm” value (Puccinia triticina) is reported as “B (≤ 80)”. For the same molecule, the “PUCCRT 3DC disease control rating, HV activity at 100 ppm” value (Puccinia triticina) was “D”.

With COc1ccnc(C(=O)NC(Cc2ccccc2)C(=O)OC(C)C(Oc2ccccc2)C(C)C)c1O (mixture of isomers) [Cmpd 812] the “SEPTTR 1DP disease control rating, HV activity at 100 ppm” value (Zymoseptoria tritici) was “B (≤ 80)”, the “SEPTTR 3DC disease control rating, HV activity at 100 ppm” value (Zymoseptoria tritici) was “B (≤ 80)” and the “PUCCRT 1DP disease control rating, HV activity at 100 ppm” value (Puccinia triticina) was “A (> 80)”. For the same molecule, the “PUCCRT 3DC disease control rating, HV activity at 100 ppm” value (Puccinia triticina) was “A (> 80)”.

CC[C@H](C)[C@H](NC(=O)c1nccc(OC)c1OCOC(C)=O)C(=O)O[C@@H](C)[C@H](Oc1cc(F)ccc1F)C(C)C [Cmpd 619] was tested, and the “SEPTTR 1DP … (% Control rating)” value (Zymoseptoria tritici) was “D”, the “SEPTTR 3DC … (% Control rating)” value (Zymoseptoria tritici) was “D” and the “PUCCRT 1DP … (% Control rating)” value (Puccinia triticina) was “A (> 80)”. The “PUCCRT 3DC … (% Control rating)” value (Puccinia triticina) was “A (> 80)”.

COc1ccnc(C(=O)N[C@@H](C)C(=O)O[C@@H](C)[C@H](Oc2ccc(C)cc2)C2CC2)c1O [Cmpd 1010] was tested, and the “SEPTTR 1DP disease control rating, HV activity at 100 ppm” value (Zymoseptoria tritici) was “B (≤ 80)”, the “SEPTTR 3DC disease control rating, HV activity at 100 ppm” value (Zymoseptoria tritici) was “B (≤ 80)” and the “PUCCRT 1DP disease control rating, HV activity at 100 ppm” value (Puccinia triticina) was “A (> 80)”. The “PUCCRT 3DC disease control rating, HV activity at 100 ppm” value (Puccinia triticina) was “A (> 80)”.

For CCC(CC)C(Oc1cc(F)cc(Cl)c1)C(C)OC(=O)C(C)NC(=O)c1nccc(OC)c1O (stereo not drawn) [Cmpd 383], the “SEPTTR 1DP disease control rating, HV activity” value (Zymoseptoria tritici) was “B (≤ 80)”, the “SEPTTR 3DC disease control rating, HV activity” value (Zymoseptoria tritici) was “A (> 80)” and the “PUCCRT 1DP disease control rating, HV activity” value (Puccinia triticina) was “A (> 80)”. For the same molecule, the “PUCCRT 3DC disease control rating, HV activity” value (Puccinia triticina) was “A (> 80)”.

With COc1ccnc(C(=O)N[C@@H](C)C(=O)O[C@@H](C)[C@H](Oc2ccccc2)c2ccc(F)cc2)c1O [Cmpd 848] the “SEPTTR 1DP disease control rating, HV activity at 100 ppm” value (Zymoseptoria tritici) was “B (≤ 80)”, the “SEPTTR 3DC disease control rating, HV activity at 100 ppm” value (Zymoseptoria tritici) was “A (> 80)” and the “PUCCRT 1DP disease control rating, HV activity at 100 ppm” value (Puccinia triticina) was “A (> 80)”. The “PUCCRT 3DC disease control rating, HV activity at 100 ppm” value (Puccinia triticina) was “B (≤ 80)”.

— patent US20180000085A1, “USE OF PICOLINAMIDE COMPOUNDS WITH FUNGICIDAL ACTIVITY” (DOW AGROSCIENCES LLC, priority 2014, published 2018)
